# Results from ChEMBL document CHEMBL1201862, “PubChem BioAssay data set” (2004).
# Active and inactive are the calls of the source.
# How the values were obtained:
# [1] = CCR5-tropic HIV-1 fusion blockers – cell-based, CCR5-tropic Env, dose response (AID 2279); assay type: functional
# Genome polyprotein = Genome polyprotein (dengue virus type 2, UniProt P29990); assay: flavivirus cap methylation enzyme inhibition – biochemical, confirmation dose response, primary screen (AID 588689); assay type: functional
# Sequence of Genome polyprotein (P29990 2492-3391 limits assumed): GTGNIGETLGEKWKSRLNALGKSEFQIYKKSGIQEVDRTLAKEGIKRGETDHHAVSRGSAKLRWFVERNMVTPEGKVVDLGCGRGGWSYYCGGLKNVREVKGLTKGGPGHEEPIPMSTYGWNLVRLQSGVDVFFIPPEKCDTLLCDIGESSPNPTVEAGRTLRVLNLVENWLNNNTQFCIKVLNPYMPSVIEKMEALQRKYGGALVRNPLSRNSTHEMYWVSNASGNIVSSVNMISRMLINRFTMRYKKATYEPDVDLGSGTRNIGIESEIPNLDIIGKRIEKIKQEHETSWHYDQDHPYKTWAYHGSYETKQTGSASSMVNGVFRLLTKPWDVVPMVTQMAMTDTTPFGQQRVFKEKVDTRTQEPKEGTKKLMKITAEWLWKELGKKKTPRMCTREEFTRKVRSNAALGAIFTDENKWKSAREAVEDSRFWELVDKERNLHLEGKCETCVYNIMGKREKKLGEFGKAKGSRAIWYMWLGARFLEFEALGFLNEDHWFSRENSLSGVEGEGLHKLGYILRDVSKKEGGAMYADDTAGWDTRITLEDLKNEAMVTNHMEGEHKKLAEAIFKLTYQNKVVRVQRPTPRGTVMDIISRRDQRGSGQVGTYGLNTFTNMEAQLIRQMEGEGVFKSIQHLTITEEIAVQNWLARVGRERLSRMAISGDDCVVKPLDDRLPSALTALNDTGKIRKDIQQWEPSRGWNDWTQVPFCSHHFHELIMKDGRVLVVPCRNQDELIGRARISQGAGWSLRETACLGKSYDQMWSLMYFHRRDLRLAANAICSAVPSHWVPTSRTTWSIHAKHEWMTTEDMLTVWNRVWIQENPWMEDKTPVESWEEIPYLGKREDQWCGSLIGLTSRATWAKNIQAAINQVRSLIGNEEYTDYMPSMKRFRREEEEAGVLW
# [2] = A cytotoxicity screen of small molecule inhibitors of the PhoP region in Salmonella typhi identified in the primary screen. [Related pubchem assays: 1850, 1864, 1985 ]; assay type: functional
# [3] = molecular target: T1, Acyl-homoserine lactone acylase PvdQ (Pseudomonas aeruginosa (strain LESB58), UniProt Q9I194); assay: PvdQ acylase enzyme activity blockers – biochemical, fluorescence, plate reader and imaging, cherry-picks, dose response (AID 493231)
# T1 sequence (Q9I194 whole entry): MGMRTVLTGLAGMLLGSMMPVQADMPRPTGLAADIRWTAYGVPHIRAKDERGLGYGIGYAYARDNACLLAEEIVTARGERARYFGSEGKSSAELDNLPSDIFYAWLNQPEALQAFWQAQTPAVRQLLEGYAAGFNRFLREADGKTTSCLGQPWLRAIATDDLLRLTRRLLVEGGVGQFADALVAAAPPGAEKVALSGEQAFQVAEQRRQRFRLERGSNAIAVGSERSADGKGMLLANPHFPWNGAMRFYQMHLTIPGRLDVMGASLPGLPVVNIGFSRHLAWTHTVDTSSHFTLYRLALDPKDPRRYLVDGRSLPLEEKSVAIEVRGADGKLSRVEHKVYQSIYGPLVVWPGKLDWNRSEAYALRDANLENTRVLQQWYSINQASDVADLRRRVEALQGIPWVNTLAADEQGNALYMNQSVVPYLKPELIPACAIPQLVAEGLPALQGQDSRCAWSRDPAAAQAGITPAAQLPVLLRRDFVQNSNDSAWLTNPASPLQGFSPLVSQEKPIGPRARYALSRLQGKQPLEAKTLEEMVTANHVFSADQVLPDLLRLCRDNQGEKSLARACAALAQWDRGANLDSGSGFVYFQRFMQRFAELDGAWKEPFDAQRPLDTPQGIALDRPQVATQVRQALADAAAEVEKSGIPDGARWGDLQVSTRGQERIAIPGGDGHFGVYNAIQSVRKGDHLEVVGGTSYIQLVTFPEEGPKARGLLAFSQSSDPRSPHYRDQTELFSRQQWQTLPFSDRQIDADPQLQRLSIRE
# [4] = molecular target: T2, Rac GTPase-activating protein 1 (Homo sapiens, UniProt Q9H0H5); assay: blockers of MgcRacGAP-driven Rac1 GTP hydrolysis – biochemical, ADP Hunter fluorescence, primary and confirmatory, confirmation (AID 624330); assay type: functional
# T2 sequence (Q9H0H5 whole entry): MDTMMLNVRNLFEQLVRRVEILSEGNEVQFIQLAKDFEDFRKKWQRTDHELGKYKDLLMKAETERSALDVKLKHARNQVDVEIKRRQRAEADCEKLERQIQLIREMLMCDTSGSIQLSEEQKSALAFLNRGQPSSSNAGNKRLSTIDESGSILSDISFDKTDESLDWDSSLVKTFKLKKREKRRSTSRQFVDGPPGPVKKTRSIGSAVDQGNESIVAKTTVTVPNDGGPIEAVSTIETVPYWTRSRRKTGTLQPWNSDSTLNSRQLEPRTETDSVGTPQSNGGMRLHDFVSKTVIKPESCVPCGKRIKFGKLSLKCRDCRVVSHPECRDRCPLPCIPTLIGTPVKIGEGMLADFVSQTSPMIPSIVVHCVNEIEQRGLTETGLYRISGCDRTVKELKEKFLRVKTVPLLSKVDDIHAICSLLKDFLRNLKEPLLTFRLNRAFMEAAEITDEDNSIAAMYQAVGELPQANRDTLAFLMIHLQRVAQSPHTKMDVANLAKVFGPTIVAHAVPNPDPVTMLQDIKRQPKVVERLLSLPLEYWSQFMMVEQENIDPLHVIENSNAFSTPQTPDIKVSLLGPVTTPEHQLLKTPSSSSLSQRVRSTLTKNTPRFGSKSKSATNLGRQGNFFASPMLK
# Estrogen receptor = molecular target: T3, Estrogen receptor (Homo sapiens, UniProt P03372);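 further: potency for inhibiting coactivator peptide recruitment to the receptor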
# T3 sequence (P03372 whole entry): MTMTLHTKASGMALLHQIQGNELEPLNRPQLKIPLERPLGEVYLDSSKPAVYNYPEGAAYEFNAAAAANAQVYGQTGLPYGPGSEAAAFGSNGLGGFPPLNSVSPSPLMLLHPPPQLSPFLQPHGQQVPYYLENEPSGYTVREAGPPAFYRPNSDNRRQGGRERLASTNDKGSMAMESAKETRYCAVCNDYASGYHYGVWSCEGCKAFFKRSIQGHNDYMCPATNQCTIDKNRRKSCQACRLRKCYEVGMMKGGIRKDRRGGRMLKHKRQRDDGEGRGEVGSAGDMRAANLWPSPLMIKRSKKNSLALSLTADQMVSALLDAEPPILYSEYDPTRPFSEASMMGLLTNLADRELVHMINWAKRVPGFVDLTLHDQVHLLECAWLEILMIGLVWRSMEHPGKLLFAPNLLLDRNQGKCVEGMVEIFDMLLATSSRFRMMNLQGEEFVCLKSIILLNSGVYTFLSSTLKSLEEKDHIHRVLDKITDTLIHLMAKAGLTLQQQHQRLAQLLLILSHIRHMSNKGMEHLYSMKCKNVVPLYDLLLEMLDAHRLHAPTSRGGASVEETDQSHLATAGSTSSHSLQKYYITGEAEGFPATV
# [5] = molecular target: Induced myeloid leukemia cell differentiation protein Mcl-1 (Homo sapiens, UniProt Q07820); assay type: functional
# Sequence of Induced myeloid leukemia cell differentiation protein Mcl-1 (Q07820 whole entry): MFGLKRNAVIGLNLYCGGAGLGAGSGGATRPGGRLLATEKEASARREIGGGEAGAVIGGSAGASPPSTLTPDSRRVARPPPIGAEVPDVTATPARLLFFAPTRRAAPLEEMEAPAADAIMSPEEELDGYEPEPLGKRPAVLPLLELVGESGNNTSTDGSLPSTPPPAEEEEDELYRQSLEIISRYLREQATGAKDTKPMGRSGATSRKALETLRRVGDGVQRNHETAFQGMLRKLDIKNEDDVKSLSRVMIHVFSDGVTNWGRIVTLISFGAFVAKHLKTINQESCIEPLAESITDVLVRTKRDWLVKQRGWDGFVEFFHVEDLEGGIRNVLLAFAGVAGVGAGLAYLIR
# [6] = molecular target: T4, Calpain-2 catalytic subunit (Sus scrofa, UniProt P43367); assay: m-calpain protease blockers, concentration series – biochemical, fluorogenic peptide substrate, dose response (AID 1420); assay type: functional
# T4 sequence (P43367 whole entry): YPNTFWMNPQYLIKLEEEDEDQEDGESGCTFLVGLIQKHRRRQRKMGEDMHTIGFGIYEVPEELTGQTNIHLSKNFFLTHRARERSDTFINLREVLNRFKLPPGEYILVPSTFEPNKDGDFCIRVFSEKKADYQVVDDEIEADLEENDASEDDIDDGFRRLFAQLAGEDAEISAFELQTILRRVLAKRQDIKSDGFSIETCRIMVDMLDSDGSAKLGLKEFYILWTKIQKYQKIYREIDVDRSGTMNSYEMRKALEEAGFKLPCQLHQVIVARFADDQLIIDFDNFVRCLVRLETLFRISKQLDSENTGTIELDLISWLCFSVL
# Aminopeptidase N = molecular target: T5, Aminopeptidase N (Plasmodium falciparum FcB1/Columbia, UniProt O96935); assay: malaria alanyl aminopeptidase activity blockers – biochemical, fluorogenic H-Leu-NHMec substrate, 1536-well (AID 1445); parameters: species or system Plasmodium falciparum 3D7, 3D7
# T5 sequence (O96935 whole entry): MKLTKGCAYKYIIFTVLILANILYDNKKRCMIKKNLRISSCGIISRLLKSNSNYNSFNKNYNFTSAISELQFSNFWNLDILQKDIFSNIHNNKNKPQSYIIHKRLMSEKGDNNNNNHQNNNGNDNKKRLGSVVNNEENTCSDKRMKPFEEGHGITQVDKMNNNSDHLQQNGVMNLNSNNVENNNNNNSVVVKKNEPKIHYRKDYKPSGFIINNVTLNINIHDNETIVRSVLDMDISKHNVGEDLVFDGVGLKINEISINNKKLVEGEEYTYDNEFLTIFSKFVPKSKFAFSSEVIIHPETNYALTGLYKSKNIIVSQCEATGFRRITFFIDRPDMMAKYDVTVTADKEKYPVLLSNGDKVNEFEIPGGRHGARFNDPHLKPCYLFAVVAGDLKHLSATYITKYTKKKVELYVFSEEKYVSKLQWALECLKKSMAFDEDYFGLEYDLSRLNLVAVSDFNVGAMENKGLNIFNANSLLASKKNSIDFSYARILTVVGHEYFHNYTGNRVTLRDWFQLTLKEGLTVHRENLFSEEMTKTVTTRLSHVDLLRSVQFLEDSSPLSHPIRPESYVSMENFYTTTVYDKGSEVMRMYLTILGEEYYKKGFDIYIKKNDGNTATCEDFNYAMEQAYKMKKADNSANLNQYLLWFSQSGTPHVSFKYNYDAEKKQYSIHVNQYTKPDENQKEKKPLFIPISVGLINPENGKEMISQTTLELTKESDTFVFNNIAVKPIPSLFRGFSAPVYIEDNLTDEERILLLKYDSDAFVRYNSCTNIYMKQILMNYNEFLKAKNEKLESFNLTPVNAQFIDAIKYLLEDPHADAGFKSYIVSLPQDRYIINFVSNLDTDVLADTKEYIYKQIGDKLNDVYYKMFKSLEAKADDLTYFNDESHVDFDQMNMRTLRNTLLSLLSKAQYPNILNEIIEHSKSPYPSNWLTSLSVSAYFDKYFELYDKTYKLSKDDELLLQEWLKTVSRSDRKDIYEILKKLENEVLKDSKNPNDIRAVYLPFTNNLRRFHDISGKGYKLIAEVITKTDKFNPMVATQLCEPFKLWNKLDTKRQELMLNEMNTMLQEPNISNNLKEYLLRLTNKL
# Protein RecA = molecular target: T6, Protein RecA (Mycobacterium tuberculosis, UniProt P9WHJ3); assay: Fluorescence Cell-Free Homogeneous Dose Retest to Identify Inhibitors of RecA-Intein Splicing Activity. [Related pubchem assays (depositor defined):AID2097, AID2223, AID489010, AID492950]; assay type: functional
# T6 sequence (P9WHJ3 whole entry): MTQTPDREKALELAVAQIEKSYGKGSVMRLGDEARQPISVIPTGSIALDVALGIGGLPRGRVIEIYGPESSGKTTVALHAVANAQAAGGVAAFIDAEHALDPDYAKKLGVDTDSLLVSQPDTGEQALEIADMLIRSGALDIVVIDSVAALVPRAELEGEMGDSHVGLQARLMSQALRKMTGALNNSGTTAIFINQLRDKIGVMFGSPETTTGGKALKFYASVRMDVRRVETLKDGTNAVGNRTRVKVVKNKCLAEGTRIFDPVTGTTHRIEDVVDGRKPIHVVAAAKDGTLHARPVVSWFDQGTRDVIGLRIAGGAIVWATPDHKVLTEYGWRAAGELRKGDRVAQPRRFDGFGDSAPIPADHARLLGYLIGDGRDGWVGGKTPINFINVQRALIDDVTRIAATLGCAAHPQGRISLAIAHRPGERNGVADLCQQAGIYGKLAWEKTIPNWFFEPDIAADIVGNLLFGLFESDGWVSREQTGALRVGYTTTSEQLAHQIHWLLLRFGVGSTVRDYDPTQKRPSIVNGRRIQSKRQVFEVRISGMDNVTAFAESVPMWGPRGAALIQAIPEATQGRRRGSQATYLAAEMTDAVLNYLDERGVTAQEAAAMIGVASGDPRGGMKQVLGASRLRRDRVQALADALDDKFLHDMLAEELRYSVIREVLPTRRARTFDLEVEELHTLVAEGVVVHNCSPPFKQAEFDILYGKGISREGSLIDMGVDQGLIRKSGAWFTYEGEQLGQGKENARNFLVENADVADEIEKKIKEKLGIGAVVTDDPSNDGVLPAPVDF
# [7] = molecular target: T7, Replicative DNA helicase DnaB (Mycobacterium tuberculosis, UniProt P9WMR3); assay: DnaB intein splicing inhibitors, dose response, biochemical, cell-free fluorescence (AID 449749); assay type: functional
# T7 sequence (P9WMR3 whole entry): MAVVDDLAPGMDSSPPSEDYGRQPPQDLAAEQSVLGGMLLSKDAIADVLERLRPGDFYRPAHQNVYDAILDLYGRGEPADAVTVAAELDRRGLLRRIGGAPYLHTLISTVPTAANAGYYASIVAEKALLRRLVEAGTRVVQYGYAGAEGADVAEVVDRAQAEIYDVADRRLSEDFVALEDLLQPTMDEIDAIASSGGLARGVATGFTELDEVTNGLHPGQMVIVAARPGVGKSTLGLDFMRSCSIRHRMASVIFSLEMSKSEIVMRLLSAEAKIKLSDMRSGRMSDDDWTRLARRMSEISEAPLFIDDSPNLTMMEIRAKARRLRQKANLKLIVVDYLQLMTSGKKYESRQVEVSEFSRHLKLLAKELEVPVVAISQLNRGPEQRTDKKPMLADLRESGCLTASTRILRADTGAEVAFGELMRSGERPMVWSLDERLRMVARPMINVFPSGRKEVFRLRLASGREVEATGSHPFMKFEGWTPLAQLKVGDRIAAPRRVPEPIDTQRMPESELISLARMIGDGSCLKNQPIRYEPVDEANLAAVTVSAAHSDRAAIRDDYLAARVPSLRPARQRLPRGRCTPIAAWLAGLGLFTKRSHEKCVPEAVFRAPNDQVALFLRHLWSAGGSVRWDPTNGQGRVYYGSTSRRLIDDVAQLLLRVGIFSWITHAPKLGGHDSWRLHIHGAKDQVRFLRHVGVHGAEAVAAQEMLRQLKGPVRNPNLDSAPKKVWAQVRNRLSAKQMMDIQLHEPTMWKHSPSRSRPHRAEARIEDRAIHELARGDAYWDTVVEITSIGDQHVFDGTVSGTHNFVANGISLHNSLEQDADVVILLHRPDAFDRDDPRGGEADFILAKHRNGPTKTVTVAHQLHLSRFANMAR
# [8] = molecular target: Voltage-gated inwardly rectifying potassium channel KCNH2 (Homo sapiens, UniProt Q12809); assay: concentration-dependent hERG rescue from blockers – cell-based, thallium flux, dose response (AID 2121); assay type: ADME
# Sequence of Voltage-gated inwardly rectifying potassium channel KCNH2 (Q12809 whole entry): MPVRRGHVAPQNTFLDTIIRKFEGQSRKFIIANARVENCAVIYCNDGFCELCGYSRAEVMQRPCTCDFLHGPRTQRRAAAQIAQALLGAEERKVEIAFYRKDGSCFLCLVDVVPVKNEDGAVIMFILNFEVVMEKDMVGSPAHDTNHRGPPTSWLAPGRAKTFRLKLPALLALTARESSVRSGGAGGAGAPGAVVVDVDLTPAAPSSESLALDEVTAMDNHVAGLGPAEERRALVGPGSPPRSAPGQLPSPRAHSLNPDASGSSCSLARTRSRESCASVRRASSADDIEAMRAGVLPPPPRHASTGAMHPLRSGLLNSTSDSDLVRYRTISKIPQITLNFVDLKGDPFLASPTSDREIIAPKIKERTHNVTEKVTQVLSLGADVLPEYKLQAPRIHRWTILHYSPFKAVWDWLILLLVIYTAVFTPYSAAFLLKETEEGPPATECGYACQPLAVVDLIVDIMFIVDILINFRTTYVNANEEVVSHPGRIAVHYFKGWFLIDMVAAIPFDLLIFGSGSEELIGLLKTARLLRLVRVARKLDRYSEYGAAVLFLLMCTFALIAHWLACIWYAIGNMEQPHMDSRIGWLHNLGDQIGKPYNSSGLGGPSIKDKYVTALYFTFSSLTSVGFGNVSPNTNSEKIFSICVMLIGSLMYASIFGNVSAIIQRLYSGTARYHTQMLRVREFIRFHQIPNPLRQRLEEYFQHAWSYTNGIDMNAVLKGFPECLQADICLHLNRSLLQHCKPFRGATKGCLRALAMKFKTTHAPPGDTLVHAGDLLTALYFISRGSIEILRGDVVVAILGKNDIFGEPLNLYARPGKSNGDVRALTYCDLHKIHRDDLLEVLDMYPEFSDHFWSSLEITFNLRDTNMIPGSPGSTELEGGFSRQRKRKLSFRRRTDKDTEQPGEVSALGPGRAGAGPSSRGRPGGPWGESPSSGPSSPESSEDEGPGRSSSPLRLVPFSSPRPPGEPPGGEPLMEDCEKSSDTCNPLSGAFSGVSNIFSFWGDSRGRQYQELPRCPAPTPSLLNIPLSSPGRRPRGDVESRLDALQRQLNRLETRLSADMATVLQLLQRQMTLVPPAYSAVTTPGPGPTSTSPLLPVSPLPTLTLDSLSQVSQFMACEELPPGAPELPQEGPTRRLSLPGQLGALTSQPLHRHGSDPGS
smiles,measurement,setting,value
O=C(CCN1C(=O)/C(=C\C=C\c2ccccc2)SC1=S)Nc1ccccc1C(=O)O,IC50,[1],> 50 µM (active)
same,IC50,Genome polyprotein,64.3 µM (active)
COc1ccc(N2CCN(C(CNC(=O)c3ccc4c(c3)OCO4)c3ccco3)CC2)cc1 (stereo unspecified),EC50,[2],> 50 µM (active)
C=C(C)Cn1c(SCC#N)nc2ccccc2c1=O,EC50,[2],> 50 µM (active)
N#Cc1cc(-c2ccccc2)cnc1Cl,AC50,[3],6.29 µM (active)
Cc1ccc(NC(=O)CN(C)C2CCCCC2)cc1Br,EC50,[2],> 50 µM (active)
same,IC50,[4],137 µM (active)
CCC(C)n1nc(O)cc1N (stereo unspecified),IC50,Estrogen receptor,> 50 µM (not active)
COc1cc(/C=C2/SC(=S)NC2=O)ccc1OS(=O)(=O)c1ccc(C)cc1,IC50,[5],3.44 µM (active)
same,IC50,[6],13.4 µM (not active)
same,IC50,[1],10.3 µM (active)
same,IC50,Aminopeptidase N,51.8 µM (active)
same,EC50,Protein RecA,11.9 µM (active)
same,AC50,[7],3.21 µM (active)
CCN(CC)c1ccc(CNc2nc3ccccc3n2C)cc1,EC50,[2],> 50 µM (active)
NC(=O)c1cccnc1Nc1cccc([N+](=O)[O-])c1,EC50,[8],2.98 µM (active)
